Experimental data reported in paper PMC5085761 (International Journal of Molecular Sciences, 2016).

Legend:
LLC-PK1 monolayers = assay: Apical-to-basal transport through LLC-PK1 monolayers; assay type: in vitro ADME, pig; conditions: 10 µM tracer, at 120 min
Method: The LLC-PK1 cell line was purchased from DS Pharma Biomedical (Osaka, Japan). Cells were maintained in Dulbecco’s modified Eagle’s medium (DMEM; Life Technologies Japan, Tokyo, Japan) supplemented with 10% (v/v) fetal bovine serum (American Type Culture Collection, Manassas, VA, USA) and antibiotics (100 U/mL penicillin and 100 μg/mL streptomycin (Life Technologies Japan)). Cells were cultured at 37 °C under an atmosphere containing 5% CO2 before the start of the experiments.
Cells were seeded at a density of 1.5 × 10^6 cells/0.25 mL on the membrane of cell culture inserts fitting 24-well plates (upper compartment, apical side; Becton Dickinson, Franklin Lakes, NJ, USA). Flat-bottom 24-well tissue culture plates (Becton Dickinson) containing 0.95 mL of culture medium per well were used as the basolateral side (bottom compartment).
LLC-PK1 monolayer formation was monitored by the measurement of TER using an EVOM-2 and Endohm24 (World Precision Instruments, Inc., Sarasota, FL, USA) according to the manufacturer’s protocol. […] [^3H]Mannitol transport was measured as described in Section 4.3 for the validation of tight junction formation because mannitol passes through the cell monolayers via the paracellular route.
Experimental procedures were performed as described previously with minor modifications. After cultivation as described above, the culture media in both compartments were replaced with Na^+ buffer (137 mM NaCl, 2.7 mM KCl, 8 mM Na2HPO4, 1.5 mM KH2PO4, 5.6 mM D-glucose, 0.9 mM CaCl2, and 0.5 mM MgCl2; pH 7.4 at 37 °C), and the cells were preincubated for 10 min at 37 °C under normal air conditions. After the buffer was removed from each compartment, the permeability experiments were started with the addition of 0.25 mL of Na^+ buffer containing radiolabeled tracers (final concentration: 81 nM for [^3H]mannitol and 10 μM for the ^14C-labeled amino acid tracers) in each upper compartment, and 0.95 mL of Na^+ buffer in each bottom compartment. The inserts were placed into new 24-well culture plates containing 0.95 mL/well of Na^+ buffer after 5, 15, 30, 60, and 90 min of incubation. Subsequently, the cells were incubated up to 120 min at 37 °C under normal air conditions.
The apical-to-basal permeability was measured by sampling an aliquot of the buffer from the upper and bottom compartment at the indicated times. To evaluate intracellular accumulation, the cells were lysed in 0.5 mL of 0.1N NaOH at room temperature following rapid washing of the cells with ice-cold Na^+ buffer. The radioactivity of each aliquot was measured with an LSC6000SC (Beckman Coulter, Inc., Brea, CA, USA) or Tri-Carb 2910TR liquid scintillation counter (PerkinElmer) using Ultima Gold (PerkinElmer).

OATP1B3 = biological target: T1, OATP1B3 (Homo sapiens, UniProt Q9NPD5); assay: Inhibition of tracer uptake in OATP1B3-expressing cells; assay type: in vitro ADME; conditions: OATP1B3, tracer [3H]E2G 0.1 µM, 100 µM–10 mM fluciclovine
T1 construct: host or cells: HEK293
T1 sequence (Q9NPD5 1-702): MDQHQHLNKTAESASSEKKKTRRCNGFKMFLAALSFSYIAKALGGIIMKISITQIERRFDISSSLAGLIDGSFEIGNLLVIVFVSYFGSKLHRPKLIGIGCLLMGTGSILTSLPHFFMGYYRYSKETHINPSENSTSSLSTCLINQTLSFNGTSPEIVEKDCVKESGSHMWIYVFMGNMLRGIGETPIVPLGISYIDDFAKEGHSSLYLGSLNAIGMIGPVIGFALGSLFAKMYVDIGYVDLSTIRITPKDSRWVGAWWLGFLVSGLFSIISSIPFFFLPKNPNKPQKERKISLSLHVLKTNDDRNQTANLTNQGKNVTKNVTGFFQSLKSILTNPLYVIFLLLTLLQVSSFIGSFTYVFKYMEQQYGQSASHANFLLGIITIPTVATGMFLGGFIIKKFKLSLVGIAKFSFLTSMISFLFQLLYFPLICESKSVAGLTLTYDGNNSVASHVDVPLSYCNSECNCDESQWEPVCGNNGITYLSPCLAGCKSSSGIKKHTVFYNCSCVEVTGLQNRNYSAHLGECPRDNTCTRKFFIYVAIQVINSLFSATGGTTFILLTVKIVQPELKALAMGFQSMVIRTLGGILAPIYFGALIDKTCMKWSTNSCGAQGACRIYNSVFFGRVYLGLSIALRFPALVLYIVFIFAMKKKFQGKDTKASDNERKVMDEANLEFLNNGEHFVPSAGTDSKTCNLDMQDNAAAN
Method: For the SLC transporter experiments, Mock Flp-in-293 cells (Flp/mock), OAT1-expressing Flp-in-293 cells (Flp/OAT1), mock HEK293 cells (HEK/mock), and OATP1B3-expressing HEK293 cells (HEK/OATP1B3) were obtained from Kanazawa University (Ishikawa, Japan). Briefly, Flp-in-293 and HEK293 cells were transfected with the appropriate plasmid DNA and selected using antibiotics (hygromycin or G-418). All cell lines were cultured in DMEM (Life Technologies Japan) supplemented with 10% (v/v) fetal bovine serum (American Type Culture Collection) and antibiotics (100 U/mL penicillin and 100 μg/mL streptomycin (Life Technologies Japan) for mock cells, 0.2 mg/mL hygromycin for Flp/OAT1 cells, and 1.2 mg/mL G-418 (Roche Diagnostics K.K., Tokyo, Japan) for HEK/OATP1B3 cells) at 37 °C under an atmosphere containing 5% CO2. […]
The experiments were performed as described previously, with minor modifications. […] The cells were lysed in 0.3 mL of 0.1N NaOH at room temperature, after which the radioactivity of each aliquot was measured as described above. The protein concentration of the cell lysate was determined with a VersaMax microplate reader (Molecular Devices Japan K.K., Osaka, Japan) or SpectraMax i3x (Molecular Devices Japan K.K.; only for OATP1B1) using a BCA Protein Assay Kit (Thermo Fisher Scientific, Kanagawa, Japan). Tracer uptake was expressed as pmol/mg protein. […]

SMILES | mean penetration amount (apical-to-basal transport) (LLC-PK1 monolayers) [pmol] | mean residual radioactivity in the cells (LLC-PK1 monolayers) [pmol] | inhibition by fluciclovine at millimolar concentrations observed (OATP1B3)
N[14C]1(C(=O)O)CC(F)C1 (stereo not drawn) [[^14C]fluciclovine, trans-1-amino-3-fluoro[1-^14C]cyclobutanecarboxylic acid] | 145 | 238 | 
N[C@]1(C(=O)O)C[C@@H](F)C1 [fluciclovine] |  |  | not
